Source: US11000033B2, “Ketone or oxime compound, and herbicide” (NISSAN CHEMICAL CORPORATION, priority 2014, dated 2021)

Legend:
Assay type in all cases: in vivo
[1] = tested on: Echinochloa oryzacola Vasing.; assay: Test Example 2: herbicidal activity, application during weed generation in submerged conditions (symbol A); details: Table 23; application herbicide amount 320 g/ha; grade 0-5 by criteria of Test Example 1
In short: (§1)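 Seeds sown in flooded alluvial soil (4 cm water) were grown in a 25-30° C greenhouse. At the one- to two-leaf stage, diluted emulsion of compound was applied to the water surface at a predetermined rate. Effect was scored 3 weeks later.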

[2] = tested on: Monochoria vaginalis; assay: Test Example 2: herbicidal activity, application during weed generation in submerged conditions (symbol C); details: Table 23; application herbicide amount 320 g/ha; grade 0-5 by criteria of Test Example 1
In short: as §1

[3] = tested on: Echinochloa crus-galli var. crus-galli; assay: Test Example 3: herbicidal effect by foliage application, Wagner pot (symbol H); details: application herbicide amount 320 g/ha
In short: (§2)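 Plants sown in submerged alluvial soil (water depth 0.1–0.5 cm) in a 25–30 °C greenhouse and grown 14 days. An emulsion of the compound diluted in water to a set herbicide amount was sprayed uniformly on foliage. Effect on each plant scored 3 weeks after application.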

[4] = tested on: Leptochloa chinensis; assay: Test Example 3: herbicidal effect by foliage application, Wagner pot (symbol D); details: application herbicide amount 320 g/ha
In short: as §2

[5] = tested on: Cyperus difformis; assay: Test Example 3: herbicidal effect by foliage application, Wagner pot (symbol E); details: application herbicide amount 320 g/ha
In short: as §2

[6] = tested on: Digitaria ciliaris; assay: Test Example 4: herbicidal effect by soil treatment (symbol F); details: application herbicide amount 320 g/ha
In short: (§3)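 Seeds were sown in sterilized diluvial soil, covered with about 1.5 cm of soil, and the soil surface was sprayed with a water-diluted emulsion of the compound at a predetermined rate. Plants grew in a greenhouse at 25° C. to 30° C.; effects were scored visually 3 weeks after application.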

[7] = tested on: Setaria viridis; assay: Test Example 4: herbicidal effect by soil treatment (symbol G); details: application herbicide amount 320 g/ha
In short: as §3

[8] = tested on: Alopecurus myosuroides; assay: Test Example 4: herbicidal effect by soil treatment (symbol J); details: application herbicide amount 320 g/ha
In short: as §3

[9] = tested on: Abutilon theophrasti; assay: Test Example 4: herbicidal effect by soil treatment (symbol M); details: application herbicide amount 320 g/ha
In short: as §3

[10] = tested on: Stellaria media; assay: Test Example 4: herbicidal effect by soil treatment (symbol P); details: application herbicide amount 320 g/ha
In short: as §3

[11] = tested on: Veronica persica; assay: Test Example 4: herbicidal effect by soil treatment (symbol R); details: application herbicide amount 320 g/ha
In short: as §3

[12] = tested on: corn; assay: Test Example 4: effect on crop by soil treatment (symbol c); details: application herbicide amount 320 g/ha
In short: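 Seeds were sown in spots on sterilized diluvial soil in a plastic box and covered with about 1.5 cm of soil. Plants were then grown in a greenhouse at 25° C. to 30° C.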

[13] = tested on: Stellaria media; assay: Test Example 5: herbicidal effect by foliage application, plastic box (symbol P); details: 320 g/ha, 3 weeks after application
In short: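 Seeds were sown in sterilized diluvial soil, covered with about 1.5 cm of soil and grown 14 days in a greenhouse at 25° C. to 30° C. An emulsifiable formulation diluted in water to a set rate was sprayed over foliage, and injury was scored 3 weeks later.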

[14] = tested on: wheat; assay: Test Example 5: effect on crop by foliage application, plastic box (symbol e); details: 320 g/ha, 3 weeks after application
In short: (§4)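 Crop and weed seeds sown in spots in sterilized diluvial soil in plastic boxes and covered with about 1.5 cm soil. Plants raised in a greenhouse at 25° C. to 30° C. for foliar application.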

[15] = tested on: rapeseed; assay: Test Example 5: effect on crop by foliage application, plastic box (symbol g); details: 320 g/ha, 3 weeks after application
In short: as §4

## CON=C(C)CC1CC(O)=C(c2c(C)cc(-c3ccccn3)cc2C)C1=O (mixture of isomers) [6-051]
[1]
  Herbicidal effect grade, A: Echinochloa oryzacola Vasing.: 5 (Herbicidal ratio of 90% or more (almost completely withered))
[2]
  Herbicidal effect grade, C: Monochoria vaginalis: 2 (Herbicidal ratio of 20% or higher and lower than 40%)
[3]
  herbicidal effect on H (Echinochloa crus-galli var. crus-galli), grade 0-5: 5 (Herbicidal ratio of 90% or more (almost completely withered))
[4]
  herbicidal effect on D (Leptochloa chinensis), grade 0-5: 5 (Herbicidal ratio of 90% or more (almost completely withered))
[5]
  herbicidal effect on E, grade 0-5: 5 (Herbicidal ratio of 90% or more (almost completely withered))
[6]
  F: Digitaria ciliaris, herbicidal effect grade: 5 (Herbicidal ratio of 90% or more (almost completely withered))
[7]
  G: Setaria viridis, herbicidal effect grade: 5 (Herbicidal ratio of 90% or more (almost completely withered))
[8]
  J: Alopecurus myosuroides, herbicidal effect grade: 5 (Herbicidal ratio of 90% or more (almost completely withered))
[9]
  M: Abutilon theophrasti, herbicidal effect grade: 1 (Herbicidal ratio of 5% or higher and lower than 20%)
[10]
  P: Stellaria media, herbicidal effect grade: 2 (Herbicidal ratio of 20% or higher and lower than 40%)
[11]
  R: Veronica persica, herbicidal effect grade: 0 (Herbicidal ratio of 5% or lower (almost no effect))
[12]
  c: corn, effect on crop grade: 1 (Herbicidal ratio of 5% or higher and lower than 20%)
[13]
  P: Stellaria media, herbicidal effect grade: 4 (Herbicidal ratio of 70% or higher and lower than 90%)
[14]
  e: wheat, effect on crop grade: 4 (Herbicidal ratio of 70% or higher and lower than 90%)
[15]
  g: rapeseed, effect on crop grade: 5 (Herbicidal ratio of 90% or more (almost completely withered))

## CON=C(C)CC1CC(O)=C(c2c(C)cc(OCc3ccncc3)cc2C)C1=O (mixture of isomers) [6-053]
[1]
  Herbicidal effect grade, A: Echinochloa oryzacola Vasing.: 3 (Herbicidal ratio of 40% or higher and lower than 70%)
[2]
  Herbicidal effect grade, C: Monochoria vaginalis: 2 (Herbicidal ratio of 20% or higher and lower than 40%)
[3]
  herbicidal effect on H (Echinochloa crus-galli var. crus-galli), grade 0-5: 5 (Herbicidal ratio of 90% or more (almost completely withered))
[4]
  herbicidal effect on D (Leptochloa chinensis), grade 0-5: 5 (Herbicidal ratio of 90% or more (almost completely withered))
[5]
  herbicidal effect on E, grade 0-5: 3 (Herbicidal ratio of 40% or higher and lower than 70%)
[6]
  F: Digitaria ciliaris, herbicidal effect grade: 4 (Herbicidal ratio of 70% or higher and lower than 90%)
[7]
  G: Setaria viridis, herbicidal effect grade: 3 (Herbicidal ratio of 40% or higher and lower than 70%)
[8]
  J: Alopecurus myosuroides, herbicidal effect grade: 0 (Herbicidal ratio of 5% or lower (almost no effect))
[9]
  M: Abutilon theophrasti, herbicidal effect grade: 0 (Herbicidal ratio of 5% or lower (almost no effect))
[10]
  P: Stellaria media, herbicidal effect grade: 0 (Herbicidal ratio of 5% or lower (almost no effect))
[11]
  R: Veronica persica, herbicidal effect grade: 0 (Herbicidal ratio of 5% or lower (almost no effect))
[12]
  c: corn, effect on crop grade: 1 (Herbicidal ratio of 5% or higher and lower than 20%)
[13]
  P: Stellaria media, herbicidal effect grade: 0 (Herbicidal ratio of 5% or lower (almost no effect))
[14]
  e: wheat, effect on crop grade: 0 (Herbicidal ratio of 5% or lower (almost no effect))
[15]
  g: rapeseed, effect on crop grade: 3 (Herbicidal ratio of 40% or higher and lower than 70%)

## CON=C(C)CC1CC(O)=C(c2c(C)cc(-c3ccc(OC(F)(F)F)cc3)cc2C)C1=O (mixture of isomers) [6-056]
[1]
  Herbicidal effect grade, A: Echinochloa oryzacola Vasing.: 1 (Herbicidal ratio of 5% or higher and lower than 20%)
[2]
  Herbicidal effect grade, C: Monochoria vaginalis: 0 (Herbicidal ratio of 5% or lower (almost no effect))
[3]
  herbicidal effect on H (Echinochloa crus-galli var. crus-galli), grade 0-5: 4 (Herbicidal ratio of 70% or higher and lower than 90%)
[4]
  herbicidal effect on D (Leptochloa chinensis), grade 0-5: 5 (Herbicidal ratio of 90% or more (almost completely withered))
[5]
  herbicidal effect on E, grade 0-5: 3 (Herbicidal ratio of 40% or higher and lower than 70%)
[6]
  F: Digitaria ciliaris, herbicidal effect grade: 0 (Herbicidal ratio of 5% or lower (almost no effect))
[7]
  G: Setaria viridis, herbicidal effect grade: 2 (Herbicidal ratio of 20% or higher and lower than 40%)
[8]
  J: Alopecurus myosuroides, herbicidal effect grade: 0 (Herbicidal ratio of 5% or lower (almost no effect))
[9]
  M: Abutilon theophrasti, herbicidal effect grade: 0 (Herbicidal ratio of 5% or lower (almost no effect))
[10]
  P: Stellaria media, herbicidal effect grade: 0 (Herbicidal ratio of 5% or lower (almost no effect))
[11]
  R: Veronica persica, herbicidal effect grade: 0 (Herbicidal ratio of 5% or lower (almost no effect))
[12]
  c: corn, effect on crop grade: 0 (Herbicidal ratio of 5% or lower (almost no effect))
[13]
  P: Stellaria media, herbicidal effect (criteria of Test Example 1): 0 (Herbicidal ratio of 5% or lower (almost no effect))
[14]
  e: wheat, effect on crop (criteria of Test Example 1): 0 (Herbicidal ratio of 5% or lower (almost no effect))
[15]
  g: rapeseed, effect on crop (criteria of Test Example 1): 3 (Herbicidal ratio of 40% or higher and lower than 70%)

## CON=C(C)CC1CC(O)=C(c2c(C)cc(-c3ncccn3)cc2C)C1=O (mixture of isomers) [6-057]
[1]
  Herbicidal effect grade, A: Echinochloa oryzacola Vasing.: 3 (Herbicidal ratio of 40% or higher and lower than 70%)
[2]
  Herbicidal effect grade, C: Monochoria vaginalis: 0 (Herbicidal ratio of 5% or lower (almost no effect))
[3]
  herbicidal effect on H (Echinochloa crus-galli var. crus-galli), grade 0-5: 5 (Herbicidal ratio of 90% or more (almost completely withered))
[4]
  herbicidal effect on D (Leptochloa chinensis), grade 0-5: 5 (Herbicidal ratio of 90% or more (almost completely withered))
[5]
  herbicidal effect on E, grade 0-5: 5 (Herbicidal ratio of 90% or more (almost completely withered))
[6]
  F: Digitaria ciliaris, herbicidal effect grade: 5 (Herbicidal ratio of 90% or more (almost completely withered))
[7]
  G: Setaria viridis, herbicidal effect grade: 5 (Herbicidal ratio of 90% or more (almost completely withered))
[8]
  J: Alopecurus myosuroides, herbicidal effect grade: 3 (Herbicidal ratio of 40% or higher and lower than 70%)
[9]
  M: Abutilon theophrasti, herbicidal effect grade: 0 (Herbicidal ratio of 5% or lower (almost no effect))
[10]
  P: Stellaria media, herbicidal effect grade: 0 (Herbicidal ratio of 5% or lower (almost no effect))
[11]
  R: Veronica persica, herbicidal effect grade: 0 (Herbicidal ratio of 5% or lower (almost no effect))
[12]
  c: corn, effect on crop grade: 1 (Herbicidal ratio of 5% or higher and lower than 20%)
[13]
  P: Stellaria media, herbicidal effect (criteria of Test Example 1): 4 (Herbicidal ratio of 70% or higher and lower than 90%)
[14]
  e: wheat, effect on crop (criteria of Test Example 1): 5 (Herbicidal ratio of 90% or more (almost completely withered))
[15]
  g: rapeseed, effect on crop (criteria of Test Example 1): 5 (Herbicidal ratio of 90% or more (almost completely withered))

## CON=C(C)CC1CC(O)=C(c2c(C)cc(-c3ccc(F)cc3)cc2C)C1=O (mixture of isomers) [6-058]
[1]
  Herbicidal effect grade, A: Echinochloa oryzacola Vasing.: 5 (Herbicidal ratio of 90% or more (almost completely withered))
[2]
  Herbicidal effect grade, C: Monochoria vaginalis: 5 (Herbicidal ratio of 90% or more (almost completely withered))
[3]
  herbicidal effect on H (Echinochloa crus-galli var. crus-galli), grade 0-5: 5 (Herbicidal ratio of 90% or more (almost completely withered))
[4]
  herbicidal effect on D (Leptochloa chinensis), grade 0-5: 5 (Herbicidal ratio of 90% or more (almost completely withered))
[5]
  herbicidal effect on E, grade 0-5: 5 (Herbicidal ratio of 90% or more (almost completely withered))
[6]
  F: Digitaria ciliaris, herbicidal effect grade: 5 (Herbicidal ratio of 90% or more (almost completely withered))
[7]
  G: Setaria viridis, herbicidal effect grade: 5 (Herbicidal ratio of 90% or more (almost completely withered))
[8]
  J: Alopecurus myosuroides, herbicidal effect grade: 5 (Herbicidal ratio of 90% or more (almost completely withered))
[9]
  M: Abutilon theophrasti, herbicidal effect grade: 5 (Herbicidal ratio of 90% or more (almost completely withered))
[10]
  P: Stellaria media, herbicidal effect grade: 5 (Herbicidal ratio of 90% or more (almost completely withered))
[11]
  R: Veronica persica, herbicidal effect grade: 5 (Herbicidal ratio of 90% or more (almost completely withered))
[12]
  c: corn, effect on crop grade: 5 (Herbicidal ratio of 90% or more (almost completely withered))
[13]
  P: Stellaria media, herbicidal effect (criteria of Test Example 1): 5 (Herbicidal ratio of 90% or more (almost completely withered))
[14]
  e: wheat, effect on crop (criteria of Test Example 1): 5 (Herbicidal ratio of 90% or more (almost completely withered))
[15]
  g: rapeseed, effect on crop (criteria of Test Example 1): 5 (Herbicidal ratio of 90% or more (almost completely withered))
